Data taken from PubChem BioAssay AID1259407 (Chemical Carcinogenesis Research Information System (CCRIS), 2018).
Activity calls are given as the source filed them. The rule behind the calls is not given here.

System: CCRIS mutagenicity, Ames/micronucleus/aberration tests
Assay: CCRIS mutagenicity studies
[1] = Test System: AMES SALMONELLA TYPHIMURIUM, Strain/Indicator: TA100, Metabolic Activation: NONE, Method: PREINCUBATION
[2] = Test System: AMES SALMONELLA TYPHIMURIUM, Strain/Indicator: TA100, Metabolic Activation: NONE, Method: STANDARD PLATE
[3] = Test System: AMES SALMONELLA TYPHIMURIUM, Strain/Indicator: TA1535, Metabolic Activation: HAMSTER, LIVER, S-9, AROCLOR 1254 (10%), Method: PREINCUBATION
[4] = Test System: AMES SALMONELLA TYPHIMURIUM, Strain/Indicator: TA1535, Metabolic Activation: NONE, Method: PREINCUBATION
[5] = Test System: AMES SALMONELLA TYPHIMURIUM, Strain/Indicator: TA1535, Metabolic Activation: NONE, Method: STANDARD PLATE
[6] = Test System: AMES SALMONELLA TYPHIMURIUM, Strain/Indicator: TA1535, Metabolic Activation: RAT, LIVER, S-9, AROCLOR 1254 (10%), Method: PREINCUBATION

Measured: mutagenic call

Cc1cc(-c2ccc(N=Nc3cc(S(=O)(=O)O)c4ccccc4c3N)c(C)c2)ccc1N=Nc1cc(S(=O)(=O)O)c2ccccc2c1N
inactive: Test System: AMES SALMONELLA TYPHIMURIUM, Strain/Indicator: TA98, Metabolic Activation: HAMSTER, LIVER, S-9, AROCLOR 1254 (10%), Method: PREINCUBATION inactive; negative | Test System: AMES SALMONELLA TYPHIMURIUM, Strain/Indicator: TA98, Metabolic Activation: HAMSTER, LIVER, S-9, AROCLOR 1254, Method: STANDARD PLATE inactive; negative | Test System: AMES SALMONELLA TYPHIMURIUM, Strain/Indicator: TA98, Metabolic Activation: NONE, Method: PREINCUBATION inactive; negative | Test System: AMES SALMONELLA TYPHIMURIUM, Strain/Indicator: TA98, Metabolic Activation: NONE, Method: STANDARD PLATE inactive; negative | Test System: AMES SALMONELLA TYPHIMURIUM, Strain/Indicator: TA98, Metabolic Activation: RAT, LIVER, S-9, AROCLOR 1254 (10%), Method: PREINCUBATION inactive; negative | Test System: AMES SALMONELLA TYPHIMURIUM, Strain/Indicator: TA98, Metabolic Activation: RAT, LIVER, S-9, AROCLOR 1254, Method: STANDARD PLATE inactive; negative | Test System: AMES SALMONELLA TYPHIMURIUM, Strain/Indicator: TA100, Metabolic Activation: HAMSTER, LIVER, S-9, AROCLOR 1254 (10%), Method: PREINCUBATION inactive; negative | Test System: AMES SALMONELLA TYPHIMURIUM, Strain/Indicator: TA100, Metabolic Activation: HAMSTER, LIVER, S-9, AROCLOR 1254, Method: STANDARD PLATE inactive; negative | [1] inactive; negative | [2] inactive; negative | Test System: AMES SALMONELLA TYPHIMURIUM, Strain/Indicator: TA100, Metabolic Activation: RAT, LIVER, S-9, AROCLOR 1254 (10%), Method: PREINCUBATION inactive; negative | Test System: AMES SALMONELLA TYPHIMURIUM, Strain/Indicator: TA100, Metabolic Activation: RAT, LIVER, S-9, AROCLOR 1254, Method: STANDARD PLATE inactive; negative | [3] inactive; negative | Test System: AMES SALMONELLA TYPHIMURIUM, Strain/Indicator: TA1535, Metabolic Activation: HAMSTER, LIVER, S-9, AROCLOR 1254, Method: STANDARD PLATE inactive; negative | [4] inactive; negative | [5] inactive; negative | [6] inactive; negative | Test System: AMES SALMONELLA TYPHIMURIUM, Strain/Indicator: TA1535, Metabolic Activation: RAT, LIVER, S-9, AROCLOR 1254, Method: STANDARD PLATE inactive; negative | Test System: AMES SALMONELLA TYPHIMURIUM, Strain/Indicator: TA1537, Metabolic Activation: HAMSTER, LIVER, S-9, AROCLOR 1254 (10%), Method: PREINCUBATION inactive; negative | Test System: AMES SALMONELLA TYPHIMURIUM, Strain/Indicator: TA1537, Metabolic Activation: HAMSTER, LIVER, S-9, AROCLOR 1254, Method: STANDARD PLATE inactive; negative | Test System: AMES SALMONELLA TYPHIMURIUM, Strain/Indicator: TA1537, Metabolic Activation: NONE, Method: PREINCUBATION inactive; negative | Test System: AMES SALMONELLA TYPHIMURIUM, Strain/Indicator: TA1537, Metabolic Activation: NONE, Method: STANDARD PLATE inactive; negative | Test System: AMES SALMONELLA TYPHIMURIUM, Strain/Indicator: TA1537, Metabolic Activation: RAT, LIVER, S-9, AROCLOR 1254 (10%), Method: PREINCUBATION inactive; negative | Test System: AMES SALMONELLA TYPHIMURIUM, Strain/Indicator: TA1537, Metabolic Activation: RAT, LIVER, S-9, AROCLOR 1254, Method: STANDARD PLATE inactive; negative | Test System: AMES SALMONELLA TYPHIMURIUM, Strain/Indicator: TA1538, Metabolic Activation: HAMSTER, LIVER, S-9, AROCLOR 1254, Method: STANDARD PLATE inactive; negative | Test System: AMES SALMONELLA TYPHIMURIUM, Strain/Indicator: TA1538, Metabolic Activation: HAMSTER, LIVER, S-9, Method: STANDARD PLATE inactive; negative | Test System: AMES SALMONELLA TYPHIMURIUM, Strain/Indicator: TA1538, Metabolic Activation: NONE, Method: STANDARD PLATE inactive; negative | Test System: AMES SALMONELLA TYPHIMURIUM, Strain/Indicator: TA1538, Metabolic Activation: RAT, LIVER, S-9, AROCLOR 1254, Method: STANDARD PLATE inactive; negative | Test System: MOUSE LYMPHOMA, Strain/Indicator: L5178Y (TK+/TK-), Metabolic Activation: NONE, Method: SUSPENSION/PLATE inactive; negative. reevaluation of results: negative | Test System: MOUSE LYMPHOMA, Strain/Indicator: L5178Y (TK+/TK-), Metabolic Activation: RAT, LIVER, S-9, AROCLOR 1254, Method: SUSPENSION/PLATE inactive; negative. reevaluation of results: negative
active: Test System: AMES SALMONELLA TYPHIMURIUM, Strain/Indicator: SV50, Metabolic Activation: HAMSTER, LIVER, S-9, Method: PREINCUBATION (PRIVAL METHOD) active; positive | Test System: AMES SALMONELLA TYPHIMURIUM, Strain/Indicator: SV50, Metabolic Activation: RAT, LIVER, S-9, AROCLOR 1254, Method: PREINCUBATION (PRIVAL METHOD) active; positive | Test System: AMES SALMONELLA TYPHIMURIUM, Strain/Indicator: TA98, Metabolic Activation: HAMSTER, LIVER, S-9, Method: PREINCUBATION (PRIVAL METHOD) active; positive | Test System: AMES SALMONELLA TYPHIMURIUM, Strain/Indicator: TA98, Metabolic Activation: RAT, LIVER, S-9, AROCLOR 1254, Method: PREINCUBATION (PRIVAL METHOD) active; positive

C(CC1CO1)C1CO1 (configuration not stated)
active: [2] active; positive | [5] active; positive

c1ccc2sc(SSc3nc4ccccc4s3)nc2c1
inactive: Test System: AMES SALMONELLA TYPHIMURIUM, Strain/Indicator: TA97, Metabolic Activation: HAMSTER, LIVER, S-9, AROCLOR 1254 (10%), Method: PREINCUBATION inactive; negative | Test System: AMES SALMONELLA TYPHIMURIUM, Strain/Indicator: TA97, Metabolic Activation: RAT, LIVER, S-9, AROCLOR 1254 (10%), Method: PREINCUBATION inactive; negative | Test System: AMES SALMONELLA TYPHIMURIUM, Strain/Indicator: TA98, Metabolic Activation: HAMSTER, LIVER, S-9, AROCLOR 1254 (10 OR 30%), Method: PREINCUBATION inactive; negative | Test System: AMES SALMONELLA TYPHIMURIUM, Strain/Indicator: TA98, Metabolic Activation: RAT, LIVER, S-9, AROCLOR 1254 (10 OR 30%), Method: PREINCUBATION inactive; negative | Test System: AMES SALMONELLA TYPHIMURIUM, Strain/Indicator: TA100, Metabolic Activation: HAMSTER, LIVER, S-9, AROCLOR 1254 (10 OR 30%), Method: PREINCUBATION inactive; negative | [1] inactive; negative | [3] inactive; negative | [4] inactive; negative | [6] inactive; negative
active: Test System: AMES SALMONELLA TYPHIMURIUM, Strain/Indicator: TA97, Metabolic Activation: NONE, Method: PREINCUBATION active; positive | Test System: AMES SALMONELLA TYPHIMURIUM, Strain/Indicator: TA100, Metabolic Activation: RAT, LIVER, S-9, AROCLOR 1254 (10 OR 30%), Method: PREINCUBATION active; positive
